From ChEMBL document CHEMBL1158303, “Macrocarpals H, I, and J from the Leaves of Eucalyptus globulus” (1996)
In brackets after ≈: the same amount, converted by molar mass.

Legend:
Streptococcus sobrinus [1] = test: Inhibition of Streptococcus sobrinus glucosyltransferase assessed as blockade of adherent water insoluble glucan synthesis at 100 ug/mL
Streptococcus sobrinus [2] = test: Inhibition of Streptococcus sobrinus glucosyltransferase assessed as blockade of adherent water insoluble glucan synthesis at 10 ug/mL
Streptococcus sobrinus [3] = test: Inhibition of Streptococcus sobrinus glucosyltransferase assessed as blockade of adherent water insoluble glucan synthesis at 1 ug/mL
Actinomyces viscosus = test: Antibacterial activity against Actinomyces viscosus 15987 by broth dilution method; type: functional
Capnocytophaga ochracea = test: Antibacterial activity against Capnocytophaga ochracea 33596 by broth dilution method; type: functional
Streptococcus sobrinus [4] = test: Antibacterial activity against Streptococcus sobrinus B13 by broth dilution method; type: functional
Porphyromonas gingivalis = test: Antibacterial activity against Porphyromonas gingivalis 33277 by broth dilution method; type: functional
Streptococcus mutans [5] = test: Antibacterial activity against Streptococcus mutans LA7 by broth dilution method; type: functional
Prevotella intermedia = test: Antibacterial activity against Prevotella intermedia 25611 by broth dilution method; type: functional
Streptococcus mutans [6] = test: Antibacterial activity against Streptococcus mutans Ingbritt by broth dilution method; type: functional
[7] = system: Prevotella melaninogenica; test: Antibacterial activity against Prevotella melaninogenica 25845 by broth dilution method; type: functional
Streptococcus sobrinus [8] = test: Antibacterial activity against Streptococcus sobrinus 6715 by broth dilution method; type: functional
Fusobacterium nucleatum = test: Antibacterial activity against Fusobacterium nucleatum 25586 by broth dilution method; type: functional

Structure (SMILES)	inhibition (Streptococcus sobrinus [1])	inhibition (Streptococcus sobrinus [2])	inhibition (Streptococcus sobrinus [3])	MIC (Actinomyces viscosus)	MIC (Capnocytophaga ochracea)	MIC (Streptococcus sobrinus [4])	MIC (Porphyromonas gingivalis)	MIC (Streptococcus mutans [5])	MIC (Prevotella intermedia)	MIC (Streptococcus mutans [6])	MIC [7]	MIC (Streptococcus sobrinus [8])	MIC (Fusobacterium nucleatum)
O=C(O[C@@H]1Cc2c(O)cc(O)cc2O[C@@H]1c1cc(O)c(O)c(O)c1)c1cc(O)c(O)c(O)c1	26.5%	10.5%	3%										
CC(=O)CC[C@@H]1[C@H]([C@H]2C(=O)CC[C@]2(C)C(CC(C)C)c2c(O)c(C=O)c(O)c(C=O)c2O)C1(C)C (some centres not stated) [EUCALYPTONE]	97.6%	44%	4.4%	3.13 µg/mL (≈ 6.43 µM)	3.13 µg/mL (≈ 6.43 µM)	25 µg/mL (≈ 51.4 µM)	1.56 µg/mL (≈ 3.21 µM)	12.5 µg/mL (≈ 25.7 µM)	0.78 µg/mL (≈ 1.6 µM)	12.5 µg/mL (≈ 25.7 µM)	3.13 µg/mL (≈ 6.43 µM)	25 µg/mL (≈ 51.4 µM)	6.25 µg/mL (≈ 12.8 µM)
CC(C)C[C@@H](c1c(O)c(C=O)c(O)c(C=O)c1O)[C@@]1(C)CC[C@@H]2[C@@H]1[C@H]1[C@@H](CC[C@@]2(C)O)C1(C)C [MACROCARPAL A]	97.1%	75.4%	9.7%	0.39 µg/mL (≈ 0.825 µM)	0.78 µg/mL (≈ 1.65 µM)	1.56 µg/mL (≈ 3.3 µM)	0.39 µg/mL (≈ 0.825 µM)	0.78 µg/mL (≈ 1.65 µM)	0.39 µg/mL (≈ 0.825 µM)	0.78 µg/mL (≈ 1.65 µM)	0.78 µg/mL (≈ 1.65 µM)	1.56 µg/mL (≈ 3.3 µM)	6.25 µg/mL (≈ 13.2 µM)
CC(C)C[C@H](c1c(O)c(C=O)c(O)c(C=O)c1O)[C@@]1(C)CC[C@@H]2[C@@H]1[C@H]1[C@@H](CC[C@@]2(C)O)C1(C)C [MACROCARPAL B]	97.1%	67.6%	10.1%	0.39 µg/mL (≈ 0.825 µM)	1.56 µg/mL (≈ 3.3 µM)	3.13 µg/mL (≈ 6.62 µM)	0.78 µg/mL (≈ 1.65 µM)	1.56 µg/mL (≈ 3.3 µM)	1.56 µg/mL (≈ 3.3 µM)	3.13 µg/mL (≈ 6.62 µM)	3.13 µg/mL (≈ 6.62 µM)	3.13 µg/mL (≈ 6.62 µM)	3.13 µg/mL (≈ 6.62 µM)
C=C1CC[C@@H]2[C@H]([C@H]3[C@H]1CC[C@]3(C)[C@@H](CC(C)C)c1c(O)c(C=O)c(O)c(C=O)c1O)C2(C)C [MACROCARPAL C]	98.9%	92.6%	18.9%	0.2 µg/mL (≈ 0.44 µM)	0.39 µg/mL (≈ 0.858 µM)	1.56 µg/mL (≈ 3.43 µM)	0.2 µg/mL (≈ 0.44 µM)	0.39 µg/mL (≈ 0.858 µM)	0.39 µg/mL (≈ 0.858 µM)	0.39 µg/mL (≈ 0.858 µM)	1.56 µg/mL (≈ 3.43 µM)	1.56 µg/mL (≈ 3.43 µM)	0.78 µg/mL (≈ 1.72 µM)
CC(C)C[C@@H](c1c(O)c(C=O)c(O)c(C=O)c1O)[C@@]1(C)CC[C@H]2C1=C[C@H](C(C)(C)O)CC[C@H]2C [MACROCARPAL D]	99%	78.2%	17.3%	0.39 µg/mL (≈ 0.825 µM)	1.56 µg/mL (≈ 3.3 µM)	0.78 µg/mL (≈ 1.65 µM)	0.39 µg/mL (≈ 0.825 µM)	0.78 µg/mL (≈ 1.65 µM)	0.39 µg/mL (≈ 0.825 µM)	1.56 µg/mL (≈ 3.3 µM)	1.56 µg/mL (≈ 3.3 µM)	3.13 µg/mL (≈ 6.62 µM)	6.25 µg/mL (≈ 13.2 µM)
C=C1CC[C@@H]([C@H](CC(C)C)c2c(O)c(C=O)c(O)c(C=O)c2O)[C@]2(C)CC[C@@H](C(C)(C)O)C[C@@H]12 [MACROCARPAL H]	97.6%	64%	2.9%	0.39 µg/mL (≈ 0.825 µM)	1.56 µg/mL (≈ 3.3 µM)	3.13 µg/mL (≈ 6.62 µM)	0.78 µg/mL (≈ 1.65 µM)	1.56 µg/mL (≈ 3.3 µM)	0.78 µg/mL (≈ 1.65 µM)	3.13 µg/mL (≈ 6.62 µM)	3.13 µg/mL (≈ 6.62 µM)	3.13 µg/mL (≈ 6.62 µM)	6.25 µg/mL (≈ 13.2 µM)
CC(C)C[C@H](c1c(O)c(C=O)c(O)c(C=O)c1O)[C@@H]1CC[C@@](C)(O)[C@@H]2C[C@H](C(C)(C)O)CC[C@]21C [MACROCARPAL I]	86.9%	26.3%	0%	12.5 µg/mL (≈ 25.5 µM)	12.5 µg/mL (≈ 25.5 µM)	100 µg/mL (≈ 204 µM)	6.25 µg/mL (≈ 12.7 µM)	25 µg/mL (≈ 51 µM)	12.5 µg/mL (≈ 25.5 µM)	50 µg/mL (≈ 102 µM)	12.5 µg/mL (≈ 25.5 µM)	100 µg/mL (≈ 204 µM)	25 µg/mL (≈ 51 µM)
CC(C)CC(c1c(O)c(C=O)c(O)c(C=O)c1O)[C@@H]1CC[C@@](C)(O)[C@@H]2C[C@H](C(C)(C)O)CC[C@]21C (some centres not stated) [MACROCARPAL J]	77.1%	29.7%	6.9%	12.5 µg/mL (≈ 25.5 µM)	12.5 µg/mL (≈ 25.5 µM)	100 µg/mL (≈ 204 µM)	6.25 µg/mL (≈ 12.7 µM)	25 µg/mL (≈ 51 µM)	12.5 µg/mL (≈ 25.5 µM)	50 µg/mL (≈ 102 µM)	12.5 µg/mL (≈ 25.5 µM)	100 µg/mL (≈ 204 µM)	25 µg/mL (≈ 51 µM)
Cc1ccc(C(C)C)c(O)c1 [THYMOL]				200 µg/mL (≈ 1330 µM)	100 µg/mL (≈ 666 µM)	400 µg/mL (≈ 2660 µM)	200 µg/mL (≈ 1330 µM)	400 µg/mL (≈ 2660 µM)	200 µg/mL (≈ 1330 µM)	400 µg/mL (≈ 2660 µM)	200 µg/mL (≈ 1330 µM)	200 µg/mL (≈ 1330 µM)	50 µg/mL (≈ 333 µM)
